Experimental data reported in the supplement of paper PMC10307832.

How the values were obtained:
Assay in all cases: relative viability (nuclei count vs DMSO), 5 days (fraction); higher = more cells survive
NCI-H2023 = tested on: NCI-H2023
Method in brief: (§1)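 Lung cancer cell lines in 1536-well plates were dosed by pin tool the day after seeding, either with one drug alone or with a fixed anchor-drug dose plus five library-drug doses (not always all listed) in √10 steps. After 5 days, cells were fixed and their nuclei stained in one step (final 0.05% Triton X-100, 1% formaldehyde, 1 ug/ml Hoechst), then counted on 4× images. Relative viability is the nuclei count in treated wells divided by that in vehicle wells. Values are medians of duplicate plates.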

NCI-H2009 = tested on: NCI-H2009
Method in brief: as §1

SK-LU-1 = tested on: SK-LU-1
Method in brief: as §1

NCI-H661 = tested on: NCI-H661
Method in brief: as §1

H3255 = tested on: H3255
Method in brief: as §1

LCLC-97TM1 = tested on: LCLC-97TM1
Method in brief: as §1

EMC-BAC-2 = tested on: EMC-BAC-2
Method in brief: as §1

LXF-289 = tested on: LXF-289
Method in brief: as §1

NCI-H727 = tested on: NCI-H727
Method in brief: as §1

NCI-H1993 = tested on: NCI-H1993
Method in brief: as §1

NCI-H2126 = tested on: NCI-H2126
Method in brief: as §1

NCI-H647 = tested on: NCI-H647
Method in brief: as §1

HOP-62 = tested on: HOP-62
Method in brief: as §1

EPLC-272H = tested on: EPLC-272H
Method in brief: as §1

NCI-H2347 = tested on: NCI-H2347
Method in brief: as §1

NCI-H1915 = tested on: NCI-H1915
Method in brief: as §1

PC-14 = tested on: PC-14
Method in brief: as §1

SW 1573 = tested on: SW 1573
Method in brief: as §1

NCI-H2085 = tested on: NCI-H2085
Method in brief: as §1

NCI-H1734 = tested on: NCI-H1734
Method in brief: as §1

NCI-H322M = tested on: NCI-H322M
Method in brief: as §1

`O=c1cc(-c2cccc3c2Sc2ccccc2S3)oc(N2CCOCC2)c1` + O=C(CCCCCCC(=O)Nc1ccccc1)NO [Vorinostat] (partner 1 µM) showed a relative viability (NCI-H2023; first compound 0.08 µM) of 0.707, a relative viability (NCI-H2023; first compound 0.253 µM) of 0.752 and a relative viability (NCI-H2023; first compound 0.8 µM) of 0.718. It also gave a relative viability (NCI-H2023; first compound 2.53 µM) of 0.583, a relative viability (NCI-H2023; first compound 8 µM) of 0.451 and a relative viability (NCI-H2009; first compound 0.08 µM) of 0.761. It also gave a relative viability (NCI-H2009; first compound 0.253 µM) of 0.751, a relative viability (NCI-H2009; first compound 0.8 µM) of 0.667 and a relative viability (NCI-H2009; first compound 2.53 µM) of 0.684. It also gave a relative viability (NCI-H2009; first compound 8 µM) of 0.699, a relative viability (SK-LU-1; first compound 0.08 µM) of 0.8 and a relative viability (SK-LU-1; first compound 0.253 µM) of 0.894. It also gave a relative viability (SK-LU-1; first compound 0.8 µM) of 0.877, a relative viability (SK-LU-1; first compound 2.53 µM) of 0.709 and a relative viability (SK-LU-1; first compound 8 µM) of 0.705. For the same compound, the relative viability (NCI-H661; first compound 0.08 µM) was 0.801, the relative viability (NCI-H661; first compound 0.253 µM) was 0.808 and the relative viability (NCI-H661; first compound 0.8 µM) was 0.807. The relative viability (NCI-H661; first compound 2.53 µM) was 0.734, the relative viability (NCI-H661; first compound 8 µM) was 0.789 and the relative viability (H3255; first compound 0.08 µM) was 0.811. For the same compound, the relative viability (H3255; first compound 0.253 µM) was 0.78, the relative viability (H3255; first compound 0.8 µM) was 0.805 and the relative viability (H3255; first compound 2.53 µM) was 0.878. It also gave a relative viability (H3255; first compound 8 µM) of 0.896, a relative viability (LCLC-97TM1; first compound 0.08 µM) of 0.638 and a relative viability (LCLC-97TM1; first compound 0.253 µM) of 0.927. For the same compound, the relative viability (LCLC-97TM1; first compound 0.8 µM) was 0.803, the relative viability (LCLC-97TM1; first compound 2.53 µM) was 0.602 and the relative viability (LCLC-97TM1; first compound 8 µM) was 1.06. It also gave a relative viability (EMC-BAC-2; first compound 0.08 µM) of 0.35, a relative viability (EMC-BAC-2; first compound 0.253 µM) of 0.471 and a relative viability (EMC-BAC-2; first compound 0.8 µM) of 0.524. It also gave a relative viability (EMC-BAC-2; first compound 2.53 µM) of 0.607, a relative viability (EMC-BAC-2; first compound 8 µM) of 0.48 and a relative viability (LXF-289; first compound 0.08 µM) of 0.902. The relative viability (LXF-289; first compound 0.253 µM) was 0.784, the relative viability (LXF-289; first compound 0.8 µM) was 0.782 and the relative viability (LXF-289; first compound 2.53 µM) was 0.661. For the same compound, the relative viability (LXF-289; first compound 8 µM) was 0.819, the relative viability (NCI-H727; first compound 0.08 µM) was 1.01 and the relative viability (NCI-H727; first compound 0.253 µM) was 1.29. The relative viability (NCI-H727; first compound 2.53 µM) was 1.09, the relative viability (NCI-H727; first compound 8 µM) was 1.24 and the relative viability (NCI-H1993; first compound 0.08 µM) was 0.723. For the same compound, the relative viability (NCI-H1993; first compound 0.253 µM) was 0.843, the relative viability (NCI-H1993; first compound 0.8 µM) was 0.908 and the relative viability (NCI-H1993; first compound 2.53 µM) was 0.755. For the same compound, the relative viability (NCI-H1993; first compound 8 µM) was 0.736, the relative viability (NCI-H2126; first compound 0.08 µM) was 0.722 and the relative viability (NCI-H2126; first compound 0.253 µM) was 0.781. It also gave a relative viability (NCI-H2126; first compound 0.8 µM) of 0.792, a relative viability (NCI-H2126; first compound 2.53 µM) of 0.823 and a relative viability (NCI-H2126; first compound 8 µM) of 0.74. It also gave a relative viability (NCI-H647; first compound 0.08 µM) of 0.527, a relative viability (NCI-H647; first compound 0.253 µM) of 0.691 and a relative viability (NCI-H647; first compound 0.8 µM) of 0.766. For the same compound, the relative viability (NCI-H647; first compound 2.53 µM) was 0.638, the relative viability (NCI-H647; first compound 8 µM) was 0.782 and the relative viability (HOP-62; first compound 0.08 µM) was 0.646. For the same compound, the relative viability (HOP-62; first compound 0.253 µM) was 0.832, the relative viability (HOP-62; first compound 0.8 µM) was 0.691 and the relative viability (HOP-62; first compound 2.53 µM) was 0.661. The relative viability (HOP-62; first compound 8 µM) was 0.664, the relative viability (EPLC-272H; first compound 0.08 µM) was 0.449 and the relative viability (EPLC-272H; first compound 0.253 µM) was 0.363. The relative viability (EPLC-272H; first compound 0.8 µM) was 0.291, the relative viability (EPLC-272H; first compound 2.53 µM) was 0.629 and the relative viability (EPLC-272H; first compound 8 µM) was 0.441. The relative viability (NCI-H2347; first compound 0.08 µM) was 0.606, the relative viability (NCI-H2347; first compound 0.253 µM) was 0.609 and the relative viability (NCI-H2347; first compound 0.8 µM) was 0.548. It also gave a relative viability (NCI-H2347; first compound 2.53 µM) of 0.499, a relative viability (NCI-H2347; first compound 8 µM) of 0.46 and a relative viability (NCI-H1915; first compound 0.08 µM) of 0.549. It also gave a relative viability (NCI-H1915; first compound 0.253 µM) of 0.492, a relative viability (NCI-H1915; first compound 0.8 µM) of 0.592 and a relative viability (NCI-H1915; first compound 2.53 µM) of 0.517. The relative viability (NCI-H1915; first compound 8 µM) was 0.562, the relative viability (PC-14; first compound 0.08 µM) was 0.734 and the relative viability (PC-14; first compound 0.253 µM) was 0.879. It also gave a relative viability (PC-14; first compound 0.8 µM) of 0.685, a relative viability (PC-14; first compound 2.53 µM) of 0.628 and a relative viability (PC-14; first compound 8 µM) of 0.701. For the same compound, the relative viability (SW 1573; first compound 0.08 µM) was 0.702, the relative viability (SW 1573; first compound 0.253 µM) was 0.933 and the relative viability (SW 1573; first compound 0.8 µM) was 1.01. It also gave a relative viability (SW 1573; first compound 2.53 µM) of 0.771, a relative viability (SW 1573; first compound 8 µM) of 0.907 and a relative viability (NCI-H2085; first compound 0.08 µM) of 0.739. For the same compound, the relative viability (NCI-H2085; first compound 0.253 µM) was 0.825, the relative viability (NCI-H2085; first compound 0.8 µM) was 0.687 and the relative viability (NCI-H2085; first compound 2.53 µM) was 0.759. The relative viability (NCI-H2085; first compound 8 µM) was 0.612, the relative viability (NCI-H1734; first compound 0.08 µM) was 0.771 and the relative viability (NCI-H1734; first compound 0.253 µM) was 0.94. For the same compound, the relative viability (NCI-H1734; first compound 0.8 µM) was 0.824, the relative viability (NCI-H1734; first compound 8 µM) was 0.993 and the relative viability (NCI-H322M; first compound 0.08 µM) was 0.839. It also gave a relative viability (NCI-H322M; first compound 0.253 µM) of 1.01, a relative viability (NCI-H322M; first compound 0.8 µM) of 0.948 and a relative viability (NCI-H322M; first compound 2.53 µM) of 0.825. For the same compound, the relative viability (NCI-H322M; first compound 8 µM) was 0.867.
